Laboratory results as given in ChEMBL document CHEMBL4673260, “Pyridine alkaloids with activity in the central nervous system” (Bioorg Med Chem, 2020).

Assays:
Cavia porcellus [1] = species on record: Cavia porcellus; assay: Inhibition of voltage-dependent calcium channel mediated calcium influx in guinea-pig ileum assessed as Cacl2 induced maximal smooth muscle contraction at 120 uM incubated for 15 mins relative to control; format: tissue-based
Cavia porcellus [2] = species on record: Cavia porcellus; assay: Inhibition of voltage-dependent calcium channel mediated calcium influx in guinea-pig ileum assessed as Cacl2 induced maximal smooth muscle contraction at 490 uM incubated for 15 mins relative to control; format: tissue-based
[3] = molecular target: Neuronal acetylcholine receptor subunit alpha-7 (Homo sapiens, UniProt P36544); conditions: filed as agonist
Sequence of Neuronal acetylcholine receptor subunit alpha-7 (Homo sapiens, UniProt P36544) (P36544 whole entry): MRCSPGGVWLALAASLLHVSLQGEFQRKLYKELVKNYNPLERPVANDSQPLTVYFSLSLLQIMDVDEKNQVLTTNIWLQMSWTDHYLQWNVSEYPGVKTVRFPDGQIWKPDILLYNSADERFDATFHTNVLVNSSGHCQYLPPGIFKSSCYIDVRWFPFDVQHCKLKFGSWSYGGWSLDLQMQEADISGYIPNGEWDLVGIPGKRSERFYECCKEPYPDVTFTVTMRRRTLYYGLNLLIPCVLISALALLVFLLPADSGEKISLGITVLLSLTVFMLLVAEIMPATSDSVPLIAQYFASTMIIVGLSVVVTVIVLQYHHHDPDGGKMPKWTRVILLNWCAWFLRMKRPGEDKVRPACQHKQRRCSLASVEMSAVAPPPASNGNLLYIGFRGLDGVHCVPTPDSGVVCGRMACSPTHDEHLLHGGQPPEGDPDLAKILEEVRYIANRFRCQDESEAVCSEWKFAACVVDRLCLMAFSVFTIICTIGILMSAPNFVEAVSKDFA
Description: Agonist activity at human alpha7 nAChR (unknown origin)

[4] = molecular target: T1, Neuronal acetylcholine receptor; alpha4/beta2 (Homo sapiens, UniProt P17787+P43681); assay: Agonist activity at human alpha4beta2 nAChR expressed in human K177 cell membrane assessed as increase in 86-rubidium efflux incubated for 5 mins by gamma counting method; format: cell membranes; conditions: K177cell line, filed as agonist
T1 sequence (P17787 whole entry): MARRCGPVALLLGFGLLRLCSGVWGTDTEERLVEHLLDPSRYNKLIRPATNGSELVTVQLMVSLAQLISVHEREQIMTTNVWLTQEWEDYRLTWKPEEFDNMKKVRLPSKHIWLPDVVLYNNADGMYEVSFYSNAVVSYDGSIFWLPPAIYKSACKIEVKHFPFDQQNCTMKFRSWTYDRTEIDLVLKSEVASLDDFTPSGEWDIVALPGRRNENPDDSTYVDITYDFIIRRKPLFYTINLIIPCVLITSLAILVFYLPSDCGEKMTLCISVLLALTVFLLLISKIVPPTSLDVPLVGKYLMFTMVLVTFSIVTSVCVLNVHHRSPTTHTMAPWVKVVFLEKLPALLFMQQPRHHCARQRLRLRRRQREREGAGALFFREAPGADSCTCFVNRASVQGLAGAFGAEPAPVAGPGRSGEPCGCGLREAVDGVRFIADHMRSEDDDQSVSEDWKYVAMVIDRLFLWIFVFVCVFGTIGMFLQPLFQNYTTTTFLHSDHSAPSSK
T1 sequence (P43681 whole entry): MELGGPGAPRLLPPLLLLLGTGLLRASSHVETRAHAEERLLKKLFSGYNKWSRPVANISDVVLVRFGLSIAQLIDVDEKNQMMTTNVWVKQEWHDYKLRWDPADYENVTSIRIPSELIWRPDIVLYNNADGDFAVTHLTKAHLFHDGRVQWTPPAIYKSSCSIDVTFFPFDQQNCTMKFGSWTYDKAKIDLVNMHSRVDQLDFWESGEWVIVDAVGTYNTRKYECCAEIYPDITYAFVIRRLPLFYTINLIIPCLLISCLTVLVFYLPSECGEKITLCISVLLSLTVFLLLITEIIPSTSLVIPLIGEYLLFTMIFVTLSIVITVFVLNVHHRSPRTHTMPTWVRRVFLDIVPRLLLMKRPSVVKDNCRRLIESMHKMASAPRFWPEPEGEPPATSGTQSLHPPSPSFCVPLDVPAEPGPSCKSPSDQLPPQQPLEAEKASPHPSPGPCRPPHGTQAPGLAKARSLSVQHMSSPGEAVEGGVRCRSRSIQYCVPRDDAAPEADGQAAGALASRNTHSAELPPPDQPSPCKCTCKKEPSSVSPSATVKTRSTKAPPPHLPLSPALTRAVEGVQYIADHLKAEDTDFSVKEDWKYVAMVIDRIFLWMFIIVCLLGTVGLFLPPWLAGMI

Rattus norvegicus [5] = species on record: Rattus norvegicus; assay: Displacement of [3H]-Cytisine from rat cerebral cortex nAChR at 10 uM by radioligand binding assay relative to control; conditions: filed as antagonist
[6] = molecular target: T2, Muscarinic acetylcholine receptor M1 (Rattus norvegicus) (UniProt P08482); assay: Displacement of [3H]-Pirenzepine from rat cerebral cortex Muscarinic M1 receptor at 10 uM by radioligand binding assay relative to control; conditions: filed as antagonist
T2 sequence (whole entry): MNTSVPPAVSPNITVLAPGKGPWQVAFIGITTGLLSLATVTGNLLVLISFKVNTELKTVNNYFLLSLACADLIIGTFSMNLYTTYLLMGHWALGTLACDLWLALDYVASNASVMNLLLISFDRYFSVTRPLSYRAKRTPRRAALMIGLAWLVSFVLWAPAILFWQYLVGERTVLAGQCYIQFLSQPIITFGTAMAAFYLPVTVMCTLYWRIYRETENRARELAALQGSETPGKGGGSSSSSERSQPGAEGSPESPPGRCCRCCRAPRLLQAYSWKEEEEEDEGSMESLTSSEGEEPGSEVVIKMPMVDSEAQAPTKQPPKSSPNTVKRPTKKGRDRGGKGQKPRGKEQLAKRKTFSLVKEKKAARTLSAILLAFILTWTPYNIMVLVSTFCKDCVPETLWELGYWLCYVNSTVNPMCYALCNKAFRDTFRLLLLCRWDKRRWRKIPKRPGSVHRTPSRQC

[7] = molecular target: T2, Muscarinic acetylcholine receptor M1 (Rattus norvegicus); conditions: filed as antagonist, time 40.0 min
[8] = molecular target: Neuronal acetylcholine receptor; alpha3/beta4 (Homo sapiens) (UniProt P30926+P32297); assay: Agonist activity at human alpha3beta4 nAChR expressed in mouse/rat hybrid F11 cells assessed as increase in rubidium-86 efflux; format: cell-based; conditions: filed as agonist
Torpedo = assay: Agonist activity at Torpedo alpha1beta1deltagamma nACHR; conditions: filed as agonist
[9] = molecular target: T2, Muscarinic acetylcholine receptor M1 (Rattus norvegicus); conditions: filed as antagonist, time 60.0 min
[10] = molecular target: T1, Neuronal acetylcholine receptor; alpha4/beta2
Description: Displacement of [3H]cytisine from human alpha4beta2 nAChR by radioligand competition analysis

[11] = molecular target: T1, Neuronal acetylcholine receptor; alpha4/beta2; remark: listed apart in the source
Description: Displacement of [3H]cytisine from human alpha4beta2 nAChR by Cheng-Prusoff equation analysis

[12] = molecular target: Neuronal acetylcholine receptor; alpha4/beta2 (Rattus norvegicus, UniProt P09483+P12390); assay: Displacement of [3H]-cytisine from rat brain membrane alpha4beta2 nAChR; format: cell membranes
Sequence of Neuronal acetylcholine receptor; alpha4/beta2 (Rattus norvegicus, UniProt P09483+P12390) (P09483 whole entry): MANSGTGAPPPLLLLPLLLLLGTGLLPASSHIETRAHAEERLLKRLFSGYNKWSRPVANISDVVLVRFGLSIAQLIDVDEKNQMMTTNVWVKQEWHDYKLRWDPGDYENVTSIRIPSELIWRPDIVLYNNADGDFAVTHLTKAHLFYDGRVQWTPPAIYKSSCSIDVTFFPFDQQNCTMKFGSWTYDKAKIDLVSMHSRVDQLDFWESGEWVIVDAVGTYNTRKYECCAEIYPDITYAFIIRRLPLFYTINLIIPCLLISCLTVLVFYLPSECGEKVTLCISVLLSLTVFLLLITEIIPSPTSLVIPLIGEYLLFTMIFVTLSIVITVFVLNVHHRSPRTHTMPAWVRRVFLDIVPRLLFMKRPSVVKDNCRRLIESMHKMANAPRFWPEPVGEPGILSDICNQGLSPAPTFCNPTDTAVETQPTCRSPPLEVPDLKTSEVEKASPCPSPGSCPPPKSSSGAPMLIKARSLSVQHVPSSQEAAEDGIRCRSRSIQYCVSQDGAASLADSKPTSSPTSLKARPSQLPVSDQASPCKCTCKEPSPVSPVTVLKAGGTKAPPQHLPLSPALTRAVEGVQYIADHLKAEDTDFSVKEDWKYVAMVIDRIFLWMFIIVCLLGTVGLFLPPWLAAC
Sequence of Neuronal acetylcholine receptor; alpha4/beta2 (Rattus norvegicus, UniProt P09483+P12390) (P12390 whole entry): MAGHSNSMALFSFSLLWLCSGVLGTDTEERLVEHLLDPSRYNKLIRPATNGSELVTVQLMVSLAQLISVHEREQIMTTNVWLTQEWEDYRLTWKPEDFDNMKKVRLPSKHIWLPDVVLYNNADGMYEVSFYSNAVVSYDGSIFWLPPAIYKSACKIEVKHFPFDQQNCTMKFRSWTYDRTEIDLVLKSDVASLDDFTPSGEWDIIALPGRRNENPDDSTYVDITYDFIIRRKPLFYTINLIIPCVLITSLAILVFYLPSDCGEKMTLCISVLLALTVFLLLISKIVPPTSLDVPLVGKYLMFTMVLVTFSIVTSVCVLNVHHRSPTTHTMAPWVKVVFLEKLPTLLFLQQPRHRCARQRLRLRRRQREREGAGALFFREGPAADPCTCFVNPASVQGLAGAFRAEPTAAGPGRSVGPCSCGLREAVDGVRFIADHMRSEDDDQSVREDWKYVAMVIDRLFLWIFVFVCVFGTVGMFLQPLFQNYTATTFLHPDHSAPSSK

[13] = molecular target: T1, Neuronal acetylcholine receptor; alpha4/beta2; assay: Agonist activity at human alpha4beta2 nAChR expressed in Xenopus oocytes; format: cell-based, Oocyte
[14] = molecular target: T1, Neuronal acetylcholine receptor; alpha4/beta2; assay: Agonist activity at human alpha4beta2 nAChR expressed in Xenopus oocytes relative to control; format: cell-based; conditions: Oocyte, filed as agonist
[15] = Neurotoxicity in ip dosed mouse assessed as induction of epileptic convulsion; format: toxicity, organism-based; conditions: in vivo
[16] = Neurotoxicity in ip dosed mouse assessed as mouse death; format: toxicity, organism-based; conditions: in vivo
[17] = Neurotoxicity in ip dosed mouse assessed as induction of hindlimb tonic extension; format: toxicity, organism-based; conditions: in vivo
[18] = molecular target: T1, Neuronal acetylcholine receptor; alpha4/beta2; assay: Agonist activity at human brain alpha4beta2 nAChR expressed in Xenopus laevis oocytes assessed as peak response relative to acetylcholine response; format: cell-based; conditions: Oocyte
[19] = Induction of neurotoxicity in cray fish measured after 24 hrs; conditions: procambarus clarkii
Acetylcholinesterase [20] = molecular target: T3, Acetylcholinesterase (Homo sapiens, UniProt P22303); assay: Inhibition of acetylcholinesterase (unknown origin) using acetylthiocholine iodide as substrate incubated for 30 mins by Ellman's coupled enzyme assay
T3 sequence (P22303 whole entry): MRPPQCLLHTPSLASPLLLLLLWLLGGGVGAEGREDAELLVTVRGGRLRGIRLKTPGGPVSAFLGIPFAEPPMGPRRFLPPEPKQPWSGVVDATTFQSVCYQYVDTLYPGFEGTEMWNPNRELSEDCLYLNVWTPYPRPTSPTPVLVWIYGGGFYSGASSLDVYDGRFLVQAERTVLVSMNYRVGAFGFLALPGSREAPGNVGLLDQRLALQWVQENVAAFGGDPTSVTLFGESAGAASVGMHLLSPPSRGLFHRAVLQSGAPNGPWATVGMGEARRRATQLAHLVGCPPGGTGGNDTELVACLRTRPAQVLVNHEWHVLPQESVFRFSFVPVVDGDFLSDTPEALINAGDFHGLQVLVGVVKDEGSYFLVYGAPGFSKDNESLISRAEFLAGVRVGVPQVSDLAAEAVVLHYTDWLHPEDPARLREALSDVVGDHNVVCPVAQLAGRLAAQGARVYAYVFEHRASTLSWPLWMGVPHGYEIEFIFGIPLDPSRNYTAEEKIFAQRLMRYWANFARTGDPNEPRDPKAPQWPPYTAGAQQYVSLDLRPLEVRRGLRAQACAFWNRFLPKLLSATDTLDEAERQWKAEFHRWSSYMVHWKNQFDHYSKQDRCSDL

[21] = molecular target: Muscarinic acetylcholine receptor M3 (Rattus norvegicus, UniProt P08483); assay: Inhibition of [3H]-methyl-quinuclidinyl benzilate binding to rat salivary gland muscarinic M3 receptor by radioligand binding assay
Sequence of Muscarinic acetylcholine receptor M3 (P08483 whole entry): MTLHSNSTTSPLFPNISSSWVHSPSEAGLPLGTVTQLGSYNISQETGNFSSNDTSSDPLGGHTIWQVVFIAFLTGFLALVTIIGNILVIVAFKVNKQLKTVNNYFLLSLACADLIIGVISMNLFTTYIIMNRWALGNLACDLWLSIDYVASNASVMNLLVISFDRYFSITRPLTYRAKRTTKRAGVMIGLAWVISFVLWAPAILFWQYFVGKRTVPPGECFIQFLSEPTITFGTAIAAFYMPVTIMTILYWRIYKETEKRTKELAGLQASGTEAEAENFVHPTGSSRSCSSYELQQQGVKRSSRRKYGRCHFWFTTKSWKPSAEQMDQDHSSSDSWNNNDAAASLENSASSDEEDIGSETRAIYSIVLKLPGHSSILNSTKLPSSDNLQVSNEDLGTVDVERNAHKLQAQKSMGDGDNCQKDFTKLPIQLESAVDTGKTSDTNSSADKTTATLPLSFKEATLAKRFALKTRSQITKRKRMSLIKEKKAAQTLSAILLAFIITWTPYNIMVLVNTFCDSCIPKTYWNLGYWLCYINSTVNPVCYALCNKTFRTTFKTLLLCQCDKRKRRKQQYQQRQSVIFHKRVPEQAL

[22] = molecular target: T4, Muscarinic acetylcholine receptor M1 (Rattus norvegicus, UniProt P08482); assay: Inhibition of [3H]-methyl-quinuclidinyl benzilate binding to rat brain muscarinic M1 receptor by radioligand binding assay
T4 sequence (P08482 whole entry): T2 sequence (whole entry)

[23] = molecular target: T5, Muscarinic acetylcholine receptor M2 (Rattus norvegicus, UniProt P10980); assay: Inhibition of [3H]-methyl-quinuclidinyl benzilate binding to rat heart muscarinic M2 receptor by radioligand binding assay
T5 sequence (P10980 whole entry): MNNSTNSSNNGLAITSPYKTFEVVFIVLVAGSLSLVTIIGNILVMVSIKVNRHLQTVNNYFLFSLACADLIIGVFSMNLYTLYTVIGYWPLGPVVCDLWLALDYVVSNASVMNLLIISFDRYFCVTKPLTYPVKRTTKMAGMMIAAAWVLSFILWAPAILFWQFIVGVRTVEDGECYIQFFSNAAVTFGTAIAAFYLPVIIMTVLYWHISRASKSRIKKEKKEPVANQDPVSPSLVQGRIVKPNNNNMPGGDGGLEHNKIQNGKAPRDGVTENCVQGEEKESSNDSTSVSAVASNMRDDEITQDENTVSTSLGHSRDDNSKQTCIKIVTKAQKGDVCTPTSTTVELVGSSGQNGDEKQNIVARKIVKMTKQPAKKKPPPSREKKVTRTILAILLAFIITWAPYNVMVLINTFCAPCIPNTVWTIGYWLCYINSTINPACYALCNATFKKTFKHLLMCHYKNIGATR

Acetylcholinesterase [24] = molecular target: T3, Acetylcholinesterase
Mus musculus = species on record: Mus musculus; assay: animal or person
Description: Antinociceptive activity in naloxone treated mouse assessed as induction of Straub-tail response

Rattus norvegicus [25] = species on record: Rattus norvegicus; assay: Agonist activity at nAChR in rat striatal synaptosomes assessed as [3H]dopamine release relative to tetramethylammonium; format: subcellular; conditions: Striatum, filed as agonist
[26] = molecular target: Neuronal acetylcholine receptor subunit alpha-7 (Rattus norvegicus, UniProt Q05941)
Sequence of Neuronal acetylcholine receptor subunit alpha-7 (Rattus norvegicus, UniProt Q05941) (Q05941 whole entry): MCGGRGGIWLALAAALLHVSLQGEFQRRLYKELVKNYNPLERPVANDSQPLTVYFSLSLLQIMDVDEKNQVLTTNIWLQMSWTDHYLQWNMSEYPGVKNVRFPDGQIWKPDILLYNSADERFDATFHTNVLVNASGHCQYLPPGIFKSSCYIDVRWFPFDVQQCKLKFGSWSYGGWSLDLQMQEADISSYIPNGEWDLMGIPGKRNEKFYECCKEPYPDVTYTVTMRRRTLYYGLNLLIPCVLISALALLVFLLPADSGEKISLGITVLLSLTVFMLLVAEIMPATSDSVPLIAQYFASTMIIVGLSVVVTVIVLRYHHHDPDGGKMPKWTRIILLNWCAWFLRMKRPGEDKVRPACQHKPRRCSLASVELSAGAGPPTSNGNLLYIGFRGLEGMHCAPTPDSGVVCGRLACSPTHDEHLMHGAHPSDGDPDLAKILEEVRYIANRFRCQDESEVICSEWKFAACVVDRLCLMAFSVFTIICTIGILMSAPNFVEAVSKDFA
Description: Displacement of [3H]MLA from rat alpha7 nAChR by liquid scintillation counting

## COC(=O)c1cncc2c1C[C@H](O)[C@@H]2C
Cavia porcellus [1]
  inhibition: 90%
Cavia porcellus [2]
  inhibition: 45%

## Clc1ccc(C2CC3CCC2N3)cn1 (stereo in doubt; (+))
[3]
  ED50: 1.1 µM
[4]
  ED50: 0.017 µM
Rattus norvegicus [5]
  inhibition: 98%
[6]
  inhibition: 70%
[7]
  Kapp: 1.6 µM
[8]
  ED50: 0.019 µM
Torpedo
  ED50: 1.6 µM
[9]
  Kapp: 6.9 µM

## C[C@@H]1CC2N(C)CC3c4cccc(=O)n4CC2(O)C31 (stereo partly drawn)
[10]
  IC50: 0.26 µM
[11]
  Ki: 0.088 µM

## C1=C[C@H](c2cccnc2)NCC1
[12]
  Ki: 0.136 µM
[13]
  EC50: 0.31 µM
[14]
  Imax: 102%

## O=C(O)C[C@@H]1[C@@H](C(=O)O)NC[C@@H]1c1ccc(=O)[nH]c1
[15]
  LD: 10 mg/kg
[16]
  LD: 10 mg/kg
[17]
  LD: 10 mg/kg

## C1=CC[C@H](c2cccnc2)NC1
[18]
  Imax: 25%

## C[C@@H]1CC2NCC3c4cccc(=O)n4CC2C31 (stereo partly drawn)
[10]
  IC50: 0.0048 µM
[11]
  Ki: 0.0016 µM

## c1cncc(-c2cc(-c3cccnc3-c3cccnc3)ccn2)c1
[19]
  LD50: > 240 µg

## C[C@@H]1CC[C@H]2[C@H](C(=O)c3c4c(cn(O)c3=O)[C@@]3(O)CC[C@H](O)[C@H](O4)[C@@H]3O)[C@H](C)C=C[C@@H]2C1
Acetylcholinesterase [20]
  IC50: 47 µM

## c1cc2c[n+](c1)CCCCCCCCCCCCc1ccc[n+](c1)CCCCCCCCCCCC2
[21]
  IC50: 98.8 µM
[22]
  IC50: 94.6 µM
[23]
  IC50: 36.2 µM

## CCCCCCCCCCCCCCCCc1ccc(C(=O)[O-])c[n+]1C
Acetylcholinesterase [24]
  IC50: 2800 µM

## c1cc2c[n+](c1)CCCCCCCCCCCCCCc1ccc[n+](c1)CCCCCCCCCCCCC2
[21]
  IC50: 338 µM
[22]
  IC50: 279 µM
[23]
  IC50: 175 µM

## CN1CC[C@]23c4c5ccc(O)c4O[C@H]2[C@@H](O)C=C[C@H]3[C@H]1C5 [MORPHINE]
Mus musculus
  ED50: 10 mg/kg

## C1=C[C@@H](c2cccnc2)NCC1
[12]
  Ki: 0.108 µM
[13]
  EC50: 1.01 µM
[14]
  Imax: 78.7%

## Cc1cc([C@@H]2CCCN2C)on1
Rattus norvegicus [25]
  Emax: 91%

## c1cc2c[n+](c1)CCCCCCCCCCCCCc1ccc[n+](c1)CCCCCCCCCCCC2
[21]
  IC50: 149 µM
[22]
  IC50: 111 µM
[23]
  IC50: 42.3 µM

## O=C(O)C[C@@H]1[C@@H](C(=O)O)NC[C@@H]1c1ccc(C(=O)O)[nH]c1=O
[15]
  LD: 7 mg/kg
[16]
  LD: 7 mg/kg
[17]
  LD: 7 mg/kg

## O=c1cccc2n1C[C@@H]1CNC[C@H]2C1 [CYTISINICLINE]
[11]
  Ki: 0.00028 µM
[26]
  Ki: 1.7 µM
